Experimental data as given in ChEMBL document CHEMBL1201862, “PubChem BioAssay data set” (2004).
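1) Cells in 96-well plates. 2) Compound, 48 h, 5 concentrations. 3) Linear interpolation between surrounding doses. 4) Unreached endpoint = highest concentration. At the GI50, growth is halved.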 Calls of active or inactive are those of the source. Cut-off read from the data, not from the text of the source: active = GI50 up to about 1.1 µM and inactive = higher.

What was measured:
Test in all cases: NCI-60 cell line screen, 48 h
[1] = system: TK-10
[2] = system: SNB-19
[3] = system: KM12
[4] = system: OVCAR-5
[5] = system: SF-295
[6] = system: DMS-273
[7] = system: SNB-75
[8] = system: SF-268
[9] = system: M14
[10] = system: CCRF-CEM
[11] = system: KM-20L2
[12] = system: UACC-257
[13] = system: SR
[14] = system: K562
[15] = system: HOP-62
[16] = system: LXFL 529
[17] = system: 786-0
[18] = system: DLD-1
[19] = system: SK-MEL-2
[20] = system: HCT-15
[21] = system: DMS-114
[22] = system: SF-539
[23] = system: EKVX
[24] = system: LOX IMVI
[25] = system: COLO 205
[26] = system: SK-OV-3
[27] = system: OVCAR-8
[28] = system: UO-31
[29] = system: RPMI-8226
[30] = system: U-251
[31] = system: HOP-92
[32] = system: NCI-H226
[33] = system: SW-620
[34] = system: HCT-116
[35] = system: HOP-18
[36] = system: MOLT-4
[37] = system: NCI-H522
[38] = system: A498
[39] = system: A549
[40] = system: HT-29
[41] = system: Malme-3M
[42] = system: M19-MEL
[43] = system: RXF 393
[44] = system: NCI-H460
[45] = system: CAKI-1
[46] = system: SN12C
[47] = system: ACHN
[48] = system: HL-60
[49] = system: SNB-78
[50] = system: UACC-62
[51] = system: OVCAR-3
[52] = system: OVCAR-4
[53] = system: SK-MEL-5
[54] = system: HCC 2998
[55] = system: XF498
[56] = system: NCI-H23
[57] = system: IGROV-1
[58] = system: SK-MEL-28

COC(=O)C(=O)C(C(=O)C(=O)Nc1ccc([N+](=O)[O-])cc1C#N)c1nc2ccc([N+](=O)[O-])cc2nc1O (stereo not given)
GI50 [1]: > 100 µM (inactive)
GI50 [2]: > 100 µM (inactive)
GI50 [3]: > 100 µM (inactive)
GI50 [4]: > 100 µM (inactive)
GI50 [5]: > 100 µM (inactive)
GI50 [6]: > 100 µM (inactive)
GI50 [7]: > 100 µM (inactive)
GI50 [8]: > 100 µM (inactive)
GI50 [9]: > 100 µM (inactive)
GI50 [10]: > 100 µM (inactive)
GI50 [11]: > 100 µM (inactive)
GI50 [12]: > 100 µM (inactive)
GI50 [13]: 96.8 µM (inactive)
GI50 [14]: > 100 µM (inactive)
GI50 [15]: 94.2 µM (inactive)
GI50 [16]: > 100 µM (inactive)
GI50 [17]: > 100 µM (inactive)
GI50 [18]: > 100 µM (inactive)
GI50 [19]: > 100 µM (inactive)
GI50 [20]: > 100 µM
GI50 [21]: > 100 µM (inactive)
GI50 [22]: > 100 µM (inactive)
GI50 [23]: 35.6 µM (inactive)
GI50 [24]: > 100 µM (inactive)
GI50 [25]: > 100 µM (inactive)
GI50 [26]: > 100 µM (inactive)
GI50 [27]: > 100 µM (inactive)
GI50 [28]: > 100 µM (inactive)
GI50 [29]: > 100 µM (inactive)
GI50 [30]: > 100 µM (inactive)
GI50 [31]: 93.1 µM (inactive)
GI50 [32]: 57.5 µM (inactive)
GI50 [33]: > 100 µM (inactive)
GI50 [34]: > 100 µM (inactive)
GI50 [35]: 34.8 µM (inactive)
GI50 [36]: > 100 µM (inactive)
GI50 [37]: > 100 µM (inactive)
GI50 [38]: 52.2 µM (inactive)
GI50 [39]: > 100 µM (inactive)
GI50 [40]: > 100 µM (inactive)
GI50 [41]: > 100 µM (inactive)
GI50 [42]: > 100 µM (inactive)
GI50 [43]: > 100 µM (inactive)
GI50 [44]: > 100 µM (inactive)
GI50 [45]: 94.6 µM (inactive)
GI50 [46]: > 100 µM (inactive)
GI50 [47]: > 100 µM (inactive)
GI50 [48]: > 100 µM (inactive)
GI50 [49]: > 100 µM (inactive)
GI50 [50]: > 100 µM (inactive)
GI50 [51]: > 100 µM (inactive)
GI50 [52]: > 100 µM (inactive)

CCOC(C[C@H](O)[C@H]1COC(=S)S1)OCC
GI50 [1]: > 100 µM (inactive)
GI50 [2]: > 100 µM (inactive)
GI50 [3]: > 100 µM (inactive)
GI50 [5]: > 100 µM (inactive)
GI50 [6]: > 100 µM (inactive)
GI50 [8]: > 100 µM (inactive)
GI50 [53]: > 100 µM (inactive)
GI50 [9]: > 100 µM (inactive)
GI50 [54]: > 100 µM (inactive)
GI50 [11]: > 100 µM (inactive)
GI50 [12]: > 100 µM (inactive)
GI50 [55]: > 100 µM (inactive)
GI50 [13]: > 100 µM (inactive)
GI50 [15]: > 100 µM (inactive)
GI50 [16]: > 100 µM (inactive)
GI50 [17]: > 100 µM (inactive)
GI50 [20]: > 100 µM
GI50 [21]: > 100 µM (inactive)
GI50 [22]: > 100 µM (inactive)
GI50 [23]: > 100 µM (inactive)
GI50 [24]: > 100 µM (inactive)
GI50 [25]: > 100 µM (inactive)
GI50 [26]: > 10 µM (inactive)
GI50 [27]: > 100 µM (inactive)
GI50 [56]: > 100 µM (inactive)
GI50 [28]: > 100 µM (inactive)
GI50 [29]: > 100 µM (inactive)
GI50 [30]: > 100 µM (inactive)
GI50 [32]: > 100 µM (inactive)
GI50 [33]: > 100 µM (inactive)
GI50 [34]: > 100 µM (inactive)
GI50 [37]: > 100 µM (inactive)
GI50 [39]: > 100 µM (inactive)
GI50 [40]: > 100 µM (inactive)
GI50 [41]: > 100 µM (inactive)
GI50 [42]: > 100 µM (inactive)
GI50 [43]: 4.65 µM (inactive)
GI50 [44]: > 100 µM (inactive)
GI50 [46]: > 100 µM (inactive)
GI50 [47]: > 100 µM (inactive)
GI50 [48]: > 100 µM (inactive)
GI50 [50]: > 100 µM (inactive)
GI50 [51]: > 100 µM (inactive)
GI50 [57]: > 100 µM (inactive)

COc1ccc(-c2cc(O)c3cc(OC)ccc3n2)cc1
GI50 [1]: > 100 µM (inactive)
GI50 [2]: > 100 µM (inactive)
GI50 [3]: > 100 µM (inactive)
GI50 [4]: > 100 µM (inactive)
GI50 [5]: > 100 µM (inactive)
GI50 [7]: 92.9 µM (inactive)
GI50 [8]: 36.6 µM (inactive)
GI50 [53]: > 100 µM (inactive)
GI50 [9]: > 100 µM (inactive)
GI50 [54]: 5.74 µM (inactive)
GI50 [10]: > 100 µM (inactive)
GI50 [11]: > 100 µM (inactive)
GI50 [12]: > 100 µM (inactive)
GI50 [13]: > 100 µM (inactive)
GI50 [14]: > 100 µM (inactive)
GI50 [15]: > 100 µM (inactive)
GI50 [16]: > 100 µM (inactive)
GI50 [17]: > 100 µM (inactive)
GI50 [18]: > 100 µM (inactive)
GI50 [21]: > 100 µM (inactive)
GI50 [58]: > 100 µM (inactive)
GI50 [23]: > 100 µM (inactive)
GI50 [24]: > 100 µM (inactive)
GI50 [25]: > 100 µM (inactive)
GI50 [26]: > 100 µM (inactive)
GI50 [27]: > 100 µM (inactive)
GI50 [56]: > 100 µM (inactive)
GI50 [28]: > 100 µM (inactive)
GI50 [29]: > 100 µM (inactive)
GI50 [31]: > 100 µM (inactive)
GI50 [32]: > 100 µM (inactive)
GI50 [33]: > 100 µM (inactive)
GI50 [34]: > 100 µM (inactive)
GI50 [35]: > 100 µM (inactive)
GI50 [36]: > 100 µM (inactive)
GI50 [37]: > 100 µM (inactive)
GI50 [39]: > 100 µM (inactive)
GI50 [40]: > 100 µM (inactive)
GI50 [41]: > 100 µM (inactive)
GI50 [42]: > 100 µM (inactive)
GI50 [43]: > 100 µM (inactive)
GI50 [46]: > 100 µM (inactive)
GI50 [47]: > 100 µM (inactive)
GI50 [48]: > 100 µM (inactive)
GI50 [49]: > 100 µM (inactive)
GI50 [50]: > 100 µM (inactive)
GI50 [51]: > 100 µM (inactive)
GI50 [57]: > 100 µM (inactive)
GI50 [52]: > 100 µM (inactive)

O=C(CC/C(CC(=O)c1ccc(Br)cc1)=N\O)Nc1ccc(Cl)c(Cl)c1
GI50 [1]: 18 µM (inactive)
GI50 [3]: 67.8 µM (inactive)
GI50 [4]: 54.6 µM (inactive)
GI50 [5]: > 100 µM (inactive)
GI50 [6]: 82.8 µM (inactive)
GI50 [7]: 23.8 µM (inactive)
GI50 [8]: > 100 µM (inactive)
GI50 [53]: 29.8 µM (inactive)
GI50 [9]: > 100 µM (inactive)
GI50 [54]: > 100 µM (inactive)
GI50 [10]: 37.6 µM (inactive)
GI50 [11]: > 100 µM (inactive)
GI50 [12]: 44.4 µM (inactive)
GI50 [13]: 40.3 µM (inactive)
GI50 [14]: 25.4 µM (inactive)
GI50 [15]: > 100 µM (inactive)
GI50 [16]: 47.3 µM (inactive)
GI50 [17]: > 100 µM (inactive)
GI50 [18]: > 100 µM (inactive)
GI50 [19]: > 100 µM (inactive)
GI50 [20]: 86.7 µM
GI50 [21]: 27.9 µM (inactive)
GI50 [22]: > 100 µM (inactive)
GI50 [58]: > 100 µM (inactive)
GI50 [23]: 29.3 µM (inactive)
GI50 [24]: > 100 µM (inactive)
GI50 [25]: 37.8 µM (inactive)
GI50 [26]: > 100 µM (inactive)
GI50 [27]: > 100 µM (inactive)
GI50 [56]: > 100 µM (inactive)
GI50 [28]: > 100 µM (inactive)
GI50 [29]: 46.1 µM (inactive)
GI50 [30]: > 100 µM (inactive)
GI50 [31]: 68.2 µM (inactive)
GI50 [32]: > 100 µM (inactive)
GI50 [33]: 45.2 µM (inactive)
GI50 [34]: > 100 µM (inactive)
GI50 [35]: 60.5 µM (inactive)
GI50 [36]: 52.7 µM (inactive)
GI50 [37]: 20.5 µM (inactive)
GI50 [38]: 36.3 µM (inactive)
GI50 [39]: > 100 µM (inactive)
GI50 [40]: 43.5 µM (inactive)
GI50 [41]: > 100 µM (inactive)
GI50 [42]: 64.7 µM (inactive)
GI50 [43]: 29.2 µM (inactive)
GI50 [44]: > 100 µM (inactive)
GI50 [46]: > 100 µM (inactive)
GI50 [47]: 65 µM (inactive)
GI50 [48]: 19.6 µM (inactive)
GI50 [49]: > 100 µM (inactive)
GI50 [50]: 27.2 µM (inactive)
GI50 [51]: 57.5 µM (inactive)
GI50 [57]: 60.7 µM (inactive)
GI50 [52]: 64 µM (inactive)
